Values of other authors, collected in patent US20240033221A1, “LONG-ACTING BUPIVACAINE MICROSPHERE FORMULATIONS” (Scienture, Inc., priority 2020, published 2024).
Structures can show the parent of a compound that is named as a salt.

Details: dental injections

What does the source list for `CCCCN1CCCCC1C(=O)Nc1c(C)cccc1C` (centres unmarked) [bupivacaine HCl, bupivacaine hydrochloride]?
duration of action: 2 to 8 h; onset of action: 2 to 10 min
